Reference: patent US12037354B2, “Cyclic pantetheine derivatives and uses thereof” (VectivBio Comet AG, priority 2018, dated 2024)

Key:
[1] = test system: HepG2 cells; assay: Glucose uptake Glo Assay, Example 821; format: cell-based
Procedure: The effect of compounds from the present disclosure on glucose uptake was determined in HepG2 cells (ATCC, HB-8065) using the glucose uptake Glo Assay Kit (Promega, 11343 according to manufacturer instructions. HepG2 cells were cultured in complete DMEM-glucose media (Gibco) supplemented with 10% FBS (37° C. incubator with 5% CO2) and seeded in 96-well plates at 30,000 cells/well. After removing the complete media, 100 μL/well of serum-free, high-glucose DMEM media were added to the wells and incubated overnight (37° C. incubator with 5% CO2). Media was then replaced with 100 μl/well DPBS containing 0.6°/o BSA and starved for 1 hour. Next, DPBS was removed and 45 μl/well of insulin (100 nM) or compounds (10 μM-50 μM) were added to the wells and incubated for 10 minutes (37° C. incubator with 5% CO2). Insulin and compounds were prepared in DPBS with 0.6% BSA with a final DMSO concentration of 0.1%. Next, 5 μl of 2DG (10 mM) in DPBS were added per well and allowed to incubate for 20 minutes followed by addition of 25 μl stop buffer. 37.5 μl of the mixture were then transferred to a new plate and 12.5 μl of Neutralization buffer added to the wells. After, 50 μl of 2DG6P detection Reagent were added and incubated for 0.5-1 hour at room temperature. Luminescence was measured with 0.3-1 second integration on a luminometer.

[2] = test system: Venular Endothelial cells (HUVEC) (3C system); assay: BioMAP 3C system, Example 825; format: cell-based, human
Procedure: The BioMAP platform (BioMAP® Diversity PLUS Panel from Eurofins) is an in vitro phenotypic profiling technology that screened the compounds of the present disclosure (hereafter indicated as test agents) in human primary cell-based systems modelling complex tissue and disease states. The BioMAP assays were performed using the Eurofin's BioMAP Technology Platform as (see references 1 to 13 in the example 824 section) to model different diseases on primary cell-based model systems. These systems consisted of either single primary cell types or co-culture cells. Adherent cell types were cultured or co-cultured in 96 or 384-well plates until confluence followed by the addition of compounds prepared in DMSO at a final concentration of ≤0.1%. […]
Following the general procedure as described in Example 824, Venular Endothelial cells (HUVEC) (3C system) were treated with IL-1β, TNFα, IFNγ for 24 h to model Th1 driven cardiovascular and chronic inflammation diseases in the presence or absence of the compounds. Biomarker read out were; Tissue Factor, ICAM-1, E-selectin, uPAR (CD87), IL-8, […], HLA-DR, proliferation and SRB (Sulfo-rhodamine i.e. staining for protein content).

[3] = test system: Venular endothelial cells co-cultured with macrophages (Mphg system); assay: BioMAP Mphg system, Example 836; format: cell-based, human
Procedure: (§1) The BioMAP platform (BioMAP® Diversity PLUS Panel from Eurofins) is an in vitro phenotypic profiling technology that screened the compounds of the present disclosure (hereafter indicated as test agents) in human primary cell-based systems modelling complex tissue and disease states. The BioMAP assays were performed using the Eurofin's BioMAP Technology Platform as (see references 1 to 13 in the example 824 section) to model different diseases on primary cell-based model systems. These systems consisted of either single primary cell types or co-culture cells. Adherent cell types were cultured or co-cultured in 96 or 384-well plates until confluence followed by the addition of compounds prepared in DMSO at a final concentration of ≤0.1%. In each cell-based system, primary cells from heathy donors (2-6 donors) were pooled and treated with compounds at 1 and 10 μM dose 1 h prior to stimulation and remain in culture as indicated in
(§2) Example 825, Example 826, Example 827, Example 828, Example 829, Example 830, Example 831, Example 832, Example 833, Example 834, Example 835, Example 836 and Example 837. For on the BioMAP® Diversity PLUS® Panel, please see the following references, which are incorporate herein.
Following the general procedure as described in Example 824, Venular endothelial cells co-cultured with macrophages (Mphg system) and treated with TLR2 ligand for 24 h in the presence or absence of the compounds to mimic cardiovascular inflammation, restenosis and chronic inflammation. Biomarkers read out were; MCP-1, MIP-1α, VCAM-1, CD40, E-selectin, CD69, IL-8, IL-1α, M-CSF, sIL-10 and SRB.

[4] = test system: Coronary artery smooth muscle cells (CASM3C system); assay: BioMAP CASM3C system, Example 832; format: cell-based, human
Procedure: as §1, §2
Following the general procedure as described in Example 824, Coronary artery smooth muscle cells (CASM3C system) were treated with IL-1β, TNFα and IFNγ for 24 h in the presence or absence of the compounds to model cardiovascular inflammation and restenosis. Biomarker reads out were; MCP-1, VCAM-1, Throbomodulin, Tissue factor, uPAR, IL-8, MIG, HLA-DR, IL-6, LDLR, M-CSF, PAI-1, Proliferation, SAA and SRB

[5] = test system: Peripheral blood mononuclear cells co-cultured with venular endothelial cells (Sag system); assay: BioMAP Sag system, Example 828; format: cell-based, human
Procedure: as §1, §2
Following the general procedure as described in Example 824, Peripheral blood mononuclear cells were co-cultured with venular endothelial cells and treated with soluble antigen (T-cell ligands) (Sag system) in the presence or absence of compounds to model autoimmune and chronic inflammation. Biomarkers read out were; MCP-1, CD38, CD40, E-selectin, CD69, IL-8, MIG, PBMC cytotoxicity, Proliferation and SRB.

[6] = test system: Peripheral blood mononuclear cells co-cultured with B-cells (BT system); assay: BioMAP BT system, Example 829; format: cell-based, human
Procedure: as §1, §2
Following the general procedure as described in Example 824, Peripheral blood mononuclear cells were co-cultured with B-cells (BT system) were treated with either α-IgM and TCR ligands for 72 h in the presence or absence of the compounds to model asthma, allergy, oncology and autoimmunity. Biomarkers read out were; B-cell proliferation, PBMC cytotoxicity, secreted IgG, sIL-17A, sIL-17F, sIL-2, sIL-6 and s-TNFα.

[7] = Homo sapiens, 20 min, read-out: % increase in Glucose Uptake
[8] = procedure of Example 825, concentration tested 10 uM
[9] = procedure of Example 825, concentration tested 1 uM
[10] = procedure of Example 836, 10 uM

SMILES | activation at 50 µM [1, 7] | % increase in Glucose Uptake ([1]; concentration tested 50 uM) | % decrease in IL-8 ([2]; 3C system, 10 uM) | % increase in Proliferation (HUVEC) ([2]; 3C system, 10 uM) | % increase in Proliferation (HUVEC) ([2]; concentration tested 10 uM) | % decrease in IL-8 [2, 8] | % decrease in LDLR ([4]; 1 uM) | % decrease in VCAM-1 ([4]; 1 uM) | % decrease in uPAR ([4]; 1 uM) | % decrease in HLA-DR ([4]; 10 uM) | % decrease in Thrombomodulin ([4]; 10 uM) | % decrease in CXCL8/IL-8 ([5]; Sag system, 10 uM) | % decrease in CXCL8/IL-8 ([5]; concentration tested 10 uM) | % decrease in sTNFα ([6]; BT system, 1 uM) | % increase in B-cell Proliferation ([6]; BT system, 10 uM) | % increase in sIL-6 ([6]; BT system, 10 uM) | % increase in B-cell Proliferation ([6]; concentration tested 10 uM) | % decrease in α-SMA ([3]; procedure of Example 836, 1 uM) | % decrease in IL-8 ([4]; 10 uM) | % decrease in LDLR ([4]; 10 uM) | other results
C/C=C/C(=O)SCCNC(=O)CCNC(=O)[C@@H]1OP(=O)(O)OCC1(C)C [Compound 36] | ≥ 30% | ≥30% | ≥10% | ≥20% | ≥20% | ≥10% | ≥10% | ≥10% | ≥10% | ≥10% | ≥20% | ≥10% | ≥10% | ≥10% | ≥20% | ≥10% | ≥20% | – | – | – | % increase in MIP-1α ([3]; Mphg system, 10 uM): ≥10%; % decrease in M-CSF ([4]; 10 uM): ≥10%; % decrease in Tissue Factor ([4]; 10 uM): ≥10%
CC(=O)CC(=O)SCCNC(=O)CCNC(=O)[C@@H]1OP(=O)(O)OCC1(C)C [Compound 42] | – | – | – | – | – | – | – | – | – | – | ≥10% | – | – | – | – | – | – | ≥10% | ≥10% | ≥10% | activation at 10 µM ([1]; Homo sapiens, 20 min, 10 uM, read-out: % increase in Glucose Uptake): ≥ 30%; % increase in Glucose Uptake ([1]; concentration tested 10 uM): ≥30%; % increase in MMP-1 ([3]; procedure of Example 836, 1 uM): ≥10%; % increase in CD69 ([5]; Sag system, 10 uM): ≥10%; % increase in MCP-1 ([5]; Sag system, 10 uM): ≥10%; % increase in CD69 ([5]; concentration tested 10 uM): ≥10%; % decrease in B-cell proliferation ([6]; BT system, 10 uM): ≥10%; % decrease in sIL-17 ([6]; BT system, 10 uM): ≥20%; % decrease in sTNFα ([6]; BT system, 10 uM): ≥20%; % decrease in B-cell proliferation ([6]; concentration tested 10 uM): ≥10%; % decrease in sIL-17 ([6]; concentration tested 10 uM): ≥20%
CCOP1(=O)OCC(C)(C)[C@H](C(=O)NCCC(=O)NCCSC(=O)CCC(=O)O)O1 (stereo partly drawn) [Compound 61] | ≥ 10% | ≥10% | – | – | – | – | – | ≥10% | – | – | ≥20% | – | – | – | ≥10% | ≥10% | ≥10% | – | – | ≥10% | % decrease in IL-8 ([2]; 3C system, 1 uM): ≥10%; % decrease in IL-8 [2, 9]: ≥10%; % decrease in α-SMA [3, 10]: ≥10%; % increase in MMP-1 [3, 10]: ≥10%; % decrease in Tissue Factor ([4]; 1 uM): ≥10%; % increase in PBMC Cytotoxicity ([5]; Sag system, 10 uM): ≥10%; % increase in PBMC Cytotoxicity ([5]; concentration tested 10 uM): ≥10%
COC(=O)CCC(=O)SCCNC(=O)CCNC(=O)[C@@H]1OC(=O)OCC1(C)C [Compound 451] | ≥ 20% | ≥20% | – | ≥20% | ≥20% | – | – | ≥10% | – | ≥10% | – | ≥10% | ≥10% | ≥20% | – | – | – | ≥10% | – | – | % decrease in IL-8 ([2]; 3C system, 1 uM): ≥10%; % decrease in IL-8 [2, 9]: ≥10%; % decrease in VCAM-1 [3, 10]: ≥10%; % increase in MMP-1 [3, 10]: ≥10%; % decrease in Thrombomodulin ([4]; 1 uM): ≥10%; % increase in IL-6 ([4]; 10 uM): ≥10%; % increase in B-cell Proliferation ([6]; BT system, 1 uM): ≥10%; % increase in B-cell Proliferation ([6]; concentration tested 1 uM): ≥10%
COC(=O)CCC(=O)SCCNC(=O)CCNC(=O)[C@@H]1OC(C)(CC(=O)OC)OCC1(C)C (stereo partly drawn) [Compound 633] | – | – | ≥20% | – | – | ≥20% | ≥10% | ≥10% | ≥10% | – | – | – | – | – | ≥20% | ≥20% | ≥20% | – | ≥10% | – | % increase in Proliferation (HUVEC) ([2]; 3C system, 1 uM): ≥20%; % increase in Proliferation (HUVEC) ([2]; concentration tested 1 uM): ≥20%; % decrease in VCAM-1 ([3]; procedure of Example 836, 1 uM): ≥10%; % decrease in α-SMA [3, 10]: ≥10%; % decrease in HLA-DR ([4]; 1 uM): ≥10%; % decrease in M-CSF ([4]; 1 uM): ≥10%; % decrease in Thrombomodulin ([4]; 1 uM): ≥10%; % decrease in Tissue Factor ([4]; 1 uM): ≥10%; % decrease in sTNFα ([6]; BT system, 10 uM): ≥10%; % increase in sIL-2 ([6]; BT system, 10 uM): ≥20%
